Experimental data published in PMC3770654, “Gastric Antimicrobial Peptides Fail to Eradicate Helicobacter pylori Infection Due to Selective Induction and Resistance” (PLoS ONE, 2013).
No end group written: not given here.

Key:
[1] = tested on: H. pylori KaE1, DSM 9691, DSM 10242 and DSM 21031; assay: Flow cytometric viability assay with DiBAC4(3), four H. pylori strains; assay type: cell-based; conditions: all 4 H. pylori strains; 20 µg/ml peptide, Schaedler Broth 1:6, 37°C, 90 minutes, DiBAC4(3)
Description: (§1) The clinical isolate H. pylori KaE1 and the reference strains H. pylori DSM 9691, DSM 10242 and DSM 21031 were tested for susceptibility towards defensins, LL37 and elafin (amino acid sequences Table S1). The strain H. pylori DSM 10242 is positive for the virulence factors VacA and CagA. As control strain for antimicrobial activity served the sensitive E. coli ATCC 25922.
(§2) H. pylori strains were cultured on Columbia blood agar at 37 C° for 2 days in a microaerophilic atmosphere with CampyGen (Oxoid, Hampshire, UK). Subsequently the bacteria were suspended in Schaedler Broth (BD, Sparks, USA) diluted 1:6 with aqua dest. for incubation with antimicrobial peptides.
(§3) Bacterial viability after incubation with antimicrobial peptides or biopsy extracts was analyzed with the membrane potential sensitive dye DiBAC4(3) (bis-(1,3-dibutylbarbituric acid) trimethine oxonol) (Invitrogen, Carlsbad, CA, USA) as described previously. Briefly, 1.5x10^6 mid-logarithmic-phase bacteria/ml of H. pylori or E. coli in Schaedler Broth 1:6 were incubated with 20 µg/ml HBD1-4 (Peptide Institute, Osaka, Japan), elafin (Proteo Biotech, Kiel, Germany for FACS analysis and RDA and elafin from Peptide Institute, Osaka for CFU determination), with LL37 (Innovagen, Lund, Sweden) or with 10 µg total protein of antrum biopsy extracts at 37°C. After 90 minutes 1 µg/ml DiBAC4(3) was added to the suspensions and further incubated for 10 minutes. Then, the suspensions were centrifuged with 4500 x g for 10 minutes, pellets resuspended in 300 µl PBS and bacterial fluorescence was analyzed by a FACSCalibur^TM (BD, Sparks, USA), using Cell Quest software (BD, Sparks, USA). In each sample 10000 bacterial events were analyzed for green fluorescence and the antimicrobial activity was determined as percentage of depolarized, fluorescent bacteria. Inhibition of bacterial growth was tested by plating aliquots on Columbia blood agar and incubating at 37 C° for 2 days in a microaerophilic atmosphere with CampyGen (Oxoid, Hampshire, UK). Then colony forming units (CFU) were counted.

[2] = tested on: H. pylori KaE1, DSM 9691, DSM 10242 and DSM 21031; assay: Radial diffusion assay, four H. pylori strains; assay type: cell-based; conditions: all four Helicobacter strains; 20 µg peptide per well, 3 days, 37 °C, microaerophilic
Description: Additionally to determine inhibition of bacterial growth we performed radial diffusion assays with a modified protocol of the procedure from Robert Lehrer et al.. Briefly, H. pylori was grown on Columbia blood agar (BD, Sparks, USA), suspended in Brain Heart Infusion diluted 1:5 with aqua dest. and plated on an agar containing 20% brain heart infusion with 5% fetal calf serum. Wells with 3 mm diameter were punched into the agar and peptides were applied equivalent to the flow cytometric assay in a concentration of 20 µg per well. The agar plates were incubated for 3 days at 37 °C in a microaerophilic atmosphere with CampyGen.

H. pylori DSM 10242 [3] = assay: Plating on Columbia blood agar with CFU counting; assay type: cell-based; conditions: peptide 20 µg/ml, means of two independent experiments, control 6.10 x 10^5
Description: as §2, §3

H. pylori DMS 9691 = assay: Plating on Columbia blood agar with CFU counting; assay type: cell-based; conditions: peptide 20 µg/ml, means of two independent experiments, control 8.85 x 10^5
Description: as §2, §3

H. pylori DSM 21031 = assay: Plating on Columbia blood agar with CFU counting; assay type: cell-based; conditions: peptide 20 µg/ml, means of two independent experiments, control 7.45 x 10^5
Description: as §2, §3

H. pylori KaE = assay: Plating on Columbia blood agar with CFU counting; assay type: cell-based; conditions: peptide 20 µg/ml, means of two independent experiments, control 1.42 x 10^6
Description: as §2, §3

H. pylori [4] = conditions: ref 21 George et al., cited from earlier work
Excerpt: Previously, Hase et al. had tested two H. pylori strains against the antimicrobials HBD1, HBD2 and LL37 and […], one strain tested was resistant to HBD1, while the second strain was sensitive. […] In the study by Hase et al. […] Th ...

E. coli ATCC 25922 [5] = assay: Flow cytometric viability assay with membrane potential sensitive dye DiBAC4(3); assay type: cell-based; conditions: 20 µg/ml peptide, 1.5x10^6 bacteria/ml in Schaedler Broth 1:6, 37°C, 90 minutes, then DiBAC4(3) 10 minutes, 10000 events
Description: as §1, §3

H. pylori DSM 10242 [6] = assay: Flow cytometric viability assay with DiBAC4(3); assay type: cell-based; conditions: 20 µg/ml peptide, 37°C, 90 minutes
Description: as §1, §2
(§4) Bacterial viability after incubation with antimicrobial peptides or biopsy extracts was analyzed with the membrane potential sensitive dye DiBAC4(3) (bis-(1,3-dibutylbarbituric acid) trimethine oxonol) (Invitrogen, Carlsbad, CA, USA) as described previously. […] Then, the suspensions were centrifuged with 4500 x g for 10 minutes, pellets resuspended in 300 µl PBS and bacterial fluorescence was analyzed by a FACSCalibur^TM (BD, Sparks, USA), using Cell Quest software (BD, Sparks, USA). In each sample 10000 bacterial events were analyzed for green fluorescence and the antimicrobial activity was determined as percentage of depolarized, fluorescent bacteria. […] Then colony forming units (CFU) were counted.

H. pylori KaE1 [7] = assay: Flow cytometric viability assay with DiBAC4(3); assay type: cell-based; conditions: 20 µg/ml peptide, 37°C, 90 minutes
Description: as §1, §2, §4

H. pylori KaE1 [8] = assay: Transmission electron microscopy of peptide-treated bacteria; assay type: cell-based; conditions: H. pylori KaE1, 1.5x10^8 bacteria, 200 µg peptide/ml, 2 hours
Description: For electron microscopy 1.5x10^8 bacteria were incubated with 200 µg peptide/ml for 2 hours. Subsequently bacteria were fixed with Karnovsky solution, embedded in agarose, coagulated, cut in blocks and fixed once more in Karnovsky. After post fixation and embedding in glycid ether the specimen were cut with an ultra microtome. Sections of 30 nm were rinsed on copper grids and investigated with a Zeiss LIBRA 120 transmission electron microscope.

H. pylori [9] = assay: Binding of antimicrobial peptides to bacterial cells (flow cytometry, Streptavidin-PE); conditions: 20 µg/ml biotinylated LL37 or 20 µg/ml HBD2 with biotinylated HBD2-antibody, 30 minutes
Description: (§5) To investigate whether HBD2 and LL37 bind to the bacterial cell membrane, we incubated E. coli or H. pylori in Schaedler Broth 1:6 with 20 µg/ml biotinylated LL37 (Innovagen, Lund, Sweden) or 20 µg/ml HBD2 (Peptide Institute, Osaka, Japan) for 30 minutes. After centrifugation a biotinylated HBD2-antibody was added to the in PBS resuspended pellet of the HBD2 samples (Peprotech, Hamburg, Germany). Following washing with PBS, binding of biotinylated LL37 or of the HBD2-antibody was detected with Streptavidin-PE (BD Biosciences, Heidelberg, Germany). Suspensions incubated with HBD2 antibody and Streptavidin served as control. Fluorescence 2 of 10 000 events was measured with the FACSCalibur.

E. coli ATCC 25922 [10] = assay: as above; conditions: 20 µg/ml biotinylated LL37 or 20 µg/ml HBD2 with biotinylated HBD2-antibody, 30 minutes
Description: as §5

| Substance | depolarized bacteria [1] | zones of inhibition in radial diffusion assay [2] | Colony forming units (H. pylori DSM 10242 [3]) | Colony forming units (H. pylori DMS 9691) | Colony forming units (H. pylori DSM 21031) | Colony forming units (H. pylori KaE) | eradication (CFU) (H. pylori [4]; 10^-5 M recombinant HBD1 in hypotonic buffer) | reduction of CFU (H. pylori [4]; 10^-7 M recombinant HBD1 in hypotonic buffer) | depolarized bacteria (E. coli ATCC 25922 [5]) [%] | depolarization level (H. pylori DSM 10242 [6]) [%] | depolarization level (H. pylori KaE1 [7]) [%] | disintegration of bacterial cells (electron microscopy) (H. pylori KaE1 [8]) | effectiveness against H. pylori among defensins (H. pylori [4]) | binding to the bacterial surface (H. pylori [9]) | binding to the bacterial surface (E. coli ATCC 25922 [10]) |
| --- | --- | --- | --- | --- | --- | --- | --- | --- | --- | --- | --- | --- | --- | --- | --- |
| Asp - His - Tyr - Asn - Cys - Val - Ser - Ser - Gly - Gly - Gln - Cys - Leu - Tyr - Ser - Ala - Cys - Pro - Ile - Phe - Thr - Lys - Ile - Gln - Gly - Thr - Cys - Tyr - Arg - Gly - Lys - Ala - Lys - Cys - Cys - Lys (disulfide) [HBD1, recombinant constitutive defensin HBD1 (gene name DEFB1), Peptide Institute, Osaka] | less than 5% | no zones of inhibition | 6.85 x 10^5 CFU/ml | 8.61 x 10^5 CFU/ml | 7.15 x 10^5 CFU/ml | 1.32 x 10^6 CFU/ml | absolute eradication | about 50% | 37 | – | – | – | – | – | – |
| ELDRICGYGTARCRKKCRSQEYRIGRCPNTYACCLRK (disulfide (positions not given here)) [HBD4, recombinant defensin HBD4 (DEFB104A), Peptide Institute, Osaka] | – | no zones of inhibition | 4.95 x 10^5 CFU/ml | 8.25 x 10^5 CFU/ml | 6.90 x 10^5 CFU/ml | 1.26 x 10^6 CFU/ml | – | – | 43 | 12 | 8 | – | – | – | – |
| Gly - Ile - Ile - Asn - Thr - Leu - Gln - Lys - Tyr - Tyr - Cys - Arg - Val - Arg - Gly - Gly - Arg - Cys - Ala - Val - Leu - Ser - Cys - Leu - Pro - Lys - Glu - Glu - Gln - Ile - Gly - Lys - Cys - Ser - Thr - Arg - Gly - Arg - Lys - Cys - Cys - Arg - Arg - Lys - Lys (disulfide) [HBD3, recombinant inducible defensin HBD3 (DEFB103A), Peptide Institute, Osaka] | 34-78% | pronounced zones | 1.14 x 10^5 CFU/ml | 0.20 x 10^5 CFU/ml | 1.55 x 10^5 CFU/ml | 0.08 x 10^6 CFU/ml | – | – | 90 | – | – | more pronounced disintegration | most effective against H. pylori | – | – |
| Leu - Leu - Gly - Asp - Phe - Phe - Arg - Lys - Ser - Lys - Glu - Lys - Ile - Gly - Lys - Glu - Phe - Lys - Arg - Ile - Val - Gln - Arg - Ile - Lys - Asp - Phe - Leu - Arg - Asn - Leu - Val - Pro - Arg - Thr - Glu - Ser [LL37, amphipathic α-helical cathelicidin LL37 (CAMP), Innovagen, Lund] | 62-85% | pronounced zones | 0.15 x 10^5 CFU/ml | 0.35 x 10^5 CFU/ml | 0.41 x 10^5 CFU/ml | 0.09 x 10^6 CFU/ml | – | – | 87 | – | – | – | – | accumulated on the surface | accumulated on the surface |
